Data set [1] concerns the target Disintegrin and metalloproteinase domain-containing protein 17 (Sus scrofa, UniProt O77636). Description: Inhibition of porcine TACE.
Data set [2] in a line: Dissociation constant, pKa in water. In kind it is physicochemical.

For orientation: IC50 means the midpoint of a concentration-inhibition curve. A low value points to greater potency in that assay. As a reminder, the pKa is the negative logarithm of the acid dissociation constant.

The structures appear in SMILES notation.

Sequence of Disintegrin and metalloproteinase domain-containing protein 17 (O77636 whole entry, the tested form may be a part): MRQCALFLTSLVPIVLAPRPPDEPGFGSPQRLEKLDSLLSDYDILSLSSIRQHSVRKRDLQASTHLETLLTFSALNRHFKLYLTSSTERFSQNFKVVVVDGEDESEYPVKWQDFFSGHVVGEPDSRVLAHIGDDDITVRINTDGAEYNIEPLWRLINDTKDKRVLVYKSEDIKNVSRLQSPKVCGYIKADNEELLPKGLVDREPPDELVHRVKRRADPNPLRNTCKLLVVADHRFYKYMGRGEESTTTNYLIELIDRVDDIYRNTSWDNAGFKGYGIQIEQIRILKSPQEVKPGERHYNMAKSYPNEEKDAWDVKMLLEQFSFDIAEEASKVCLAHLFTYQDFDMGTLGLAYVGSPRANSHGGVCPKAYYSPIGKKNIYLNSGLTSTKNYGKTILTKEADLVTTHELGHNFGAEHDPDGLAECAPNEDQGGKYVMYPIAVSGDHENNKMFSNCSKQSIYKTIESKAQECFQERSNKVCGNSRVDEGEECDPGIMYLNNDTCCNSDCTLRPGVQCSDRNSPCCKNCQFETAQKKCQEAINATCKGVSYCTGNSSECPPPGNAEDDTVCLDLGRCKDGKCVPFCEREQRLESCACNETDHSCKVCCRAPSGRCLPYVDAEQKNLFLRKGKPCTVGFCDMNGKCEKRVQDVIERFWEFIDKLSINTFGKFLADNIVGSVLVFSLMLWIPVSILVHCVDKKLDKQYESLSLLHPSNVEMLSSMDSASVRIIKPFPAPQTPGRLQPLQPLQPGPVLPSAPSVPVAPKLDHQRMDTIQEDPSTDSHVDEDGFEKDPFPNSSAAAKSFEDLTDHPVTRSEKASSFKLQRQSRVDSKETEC

For `Cc1cc(COc2ccc(C3(N4CCN(C)CC4)C(=O)NC(=O)NC3=O)cc2)c2ccccc2n1`, the 50% inhibitory concentration (IC50) in data set [1] was 91 nM. The molecule also yielded a pKa in data set [2] of 7.2.
Molecule `Cc1cc(COc2ccc([C@@]3(C)CCN([C@@H](C)C(=O)NO)C3=O)cc2)c2ccccc2n1` came in with an IC50 in data set [1] below 1 nM. In data set [2], this molecule displayed a pKa of 9.
For `Cc1cc(COc2ccc(C(=O)N[C@H]3CNC[C@@]34NC(=O)NC4=O)cc2)c2ccccc2n1`, the IC50 in data set [1] was 25 nM.
Same read-out and setting: with `Cc1cc(COc2ccc(NC(=O)C[C@H]3CCC[C@]34NC(=O)NC4=O)cc2)c2ccccc2n1` [listing 1 of 2 here] the figure was 17 nM; with `Cc1cc(COc2ccc(NC(=O)C[C@@H]3CCC[C@]34NC(=O)NC4=O)cc2)c2ccccc2n1`, 7400 nM.
As to `Cc1cc(COc2ccc(NC(=O)C[C@@H]3CCC[C@@]34NC(=O)NC4=O)cc2)c2ccccc2n1`, it took 11 nM to reach half-maximal inhibition in data set [1] (IC50).
Molecule `Cc1cc(COc2ccc(NC(=O)[C@H]3CCC[C@]34NC(=O)NC4=O)cc2)c2ccccc2n1` had a 50% inhibitory concentration (IC50) in data set [1] of 230 nM.
In data set [1], `Cc1cc(COc2ccc(NC(=O)[C@@H]3CCC[C@]34NC(=O)NC4=O)cc2)c2ccccc2n1` gave a half-maximal inhibitory concentration (IC50) of 64 nM.
Consider `Cc1cc(COc2ccc(C(=O)NCC3NC(=O)NC3=O)cc2)c2ccccc2n1` (centres undefined), for which the IC50 in data set [1] worked out at 98 nM.
The molecule `Cc1cc(COc2ccc(C(=O)N[C@@H]3CNC[C@]34NC(=O)NC4=O)cc2)c2ccccc2n1` had an IC50 in data set [1] of 900 nM.
`Cc1cc(COc2ccc(NC(=O)C[C@H]3CCC[C@]34NC(=O)NC4=O)cc2)c2ccccc2n1` [listing 2 of 2 here]: 900 nM corresponded to half-maximal inhibition in data set [1] (IC50). In addition, in data set [2], the pKa amounted to 8.9.

The values above are taken from ChEMBL document CHEMBL1139072, “A molecular modeling analysis of novel non-hydroxamate inhibitors of TACE” (Bioorg Med Chem Lett, 2007).
